# Measurements: US4626542A, “4-(5H-dibenzo[a,d]cyclohepten-5-yl)piperidine compounds, pharmaceutical compositions and methods” (Merck & Co., Inc., priority 1984, dated 1986)
# Test system: not listed separately
# Experiment: Isomerization of the 5H axial to the 5H equatorial isomer followed by 1H NMR
# Type: physicochemical
# Details: 3.67 milligrams in 1 milliliter CDCl3, heated at 55° C.±1° C.
# Method: Isomerization of the 5H axial isomer of 4-(5H-dibenzo[a,d]cyclohepten-5-yl)-1-methylpiperidine to the 5H equatorial isomer was carried out in an NMR tube. 3.67 milligrams of the axial isomer was dissolved in 1 milliliter of CDCl3 at 24° C. and the sample inserted into the probe of a Nicolet NT-360 NMR spectrometer where it was heated at 55° C.±1° C. NMR spectra (^1 H) were obtained every 864 seconds until isomerization to the equatorial isomer was complete as evidenced by the disappearance of the singlet corresponding to the 5H-axial proton and appearance of the 5H-equatorial proton (about 48,727 seconds).
row,time until isomerization to the equatorial isomer was complete,SMILES
1,"about 48,727 seconds","CN1CCC(C2c3ccccc3C=Cc3ccccc32)CC1 [4-(5H-Dibenzo[a,d]cyclohepten-5-yl)-1-methylpiperidine, axial isomer]"

# Test system: Rat Aorta
# Experiment: Inhibition of calcium chloride-induced contraction of depolarized vascular smooth muscle segments (rat aorta)
# Type: cell-based, rat (male Sprague-Dawley)
# Details: Rattus norvegicus, at 10^-7 M; 1.0 mM calcium chloride-induced contraction; read-out: Percent Inhibition of Rat Aorta
# Method: The property may be observed in a test in which segments of vascular smooth muscle obtained from male Sprague-Dawley rats are suspended in physiological salt solution in a tissue bath instrumented for recording contractions. After the tissue has been equilibrated, washed in calcium-free physiological salt solution and then depolarized, 1.0 mM calcium chloride is re-added to induce contraction. After the contraction has reached a plateau, tissues are washed and a test compound or vehicle is added to determine the effect on a second contraction achieved by the above cyclic protocol. From measuring the initial contraction as well as the second contraction in the presence of the test compound, the extent of inhibition may be calculated. The results of these tests for representative compounds in the compositions of the present invention are seen in the following table. The results are with tests conducted at very low concentrations of 10^-7 M or less.
row,SMILES,inhibition at 0.1 µM [%]
1,"CN1CCC(C2c3ccccc3C=Cc3ccc(Br)cc32)CC1 (racemic) [4-(3-Bromo-5H-dibenzo[a,d]cyclohepten-5-yl)-1-methylpiperidine, equatorial isomer]",80
2,"C1=Cc2ccccc2C(C2CCN(C3CCCCC3)CC2)c2ccccc21 [4-(5H-Dibenzo[a,d]cyclohepten-5-yl)-1-cyclohexylpiperidine]",48
3,"CC(C)N1CCC(C2c3ccccc3C=Cc3ccccc32)CC1 [4-(5H-Dibenzo[a,d]cyclohepten-5-yl)-1-isopropylpiperidine]",44
4,"CN1CCC(C2c3ccccc3C=Cc3ccccc32)CC1 [4-(5H-Dibenzo[a,d]cyclohepten-5-yl)-1-methylpiperidine, axial isomer]",30
5,"C[N+]1([O-])CCC(C2c3ccccc3C=Cc3ccccc32)CC1 (stereo not drawn) [4-(5H-Dibenzo[a,d]cyclohepten-5-yl)-1-methylpiperidine-1-oxide monohydrate]",17
6,"C1=Cc2ccccc2C(C2CCNCC2)c2ccccc21 [4-(5H-Dibenzo[a,d]cyclohepten-5-yl)piperidine]",39

# Same assay, conditions: Rattus norvegicus, at 10^-8 M; 1.0 mM calcium chloride-induced contraction; read-out: Percent Inhibition of Rat Aorta
row,SMILES,inhibition at 0.01 µM [%]
1,"COc1ccc2c(c1)C(C1CCN(C)CC1)c1ccccc1C=C2 (racemic) [4-(3-Methoxy-5H-dibenzo[a,d]cyclohepten-5-yl)-1-methylpiperidine]",37
2,"CN1CCC(C2c3ccccc3C=Cc3ccccc32)CC1 [4-(5H-Dibenzo[a,d]cyclohepten-5-yl)-1-methylpiperidine, equatorial isomer]",11

# Same assay, conditions: at 10^-7 M; 1.0 mM calcium chloride-induced contraction
row,SMILES,Percent Inhibition of Rat Aorta [%]
1,"CN1CCC(C2c3ccccc3C=Cc3ccc(Br)cc32)CC1 (racemic) [5H--ax (±)4-(3-Bromo-5H--dibenzo[a,d]cyclohepten-5-yl)-1-met] [4-(3-Bromo-5H-dibenzo[a,d]cyclohepten-5-yl)-1-methylpiperidine, axial isomer]",79
2,"CN1CCC(C2c3ccccc3C=Cc3ccc(Br)cc32)CC1 (single isomer, unassigned; (+)) [5H--eq (+)4-(3-Bromo-5H--dibenzo[a,d]cyclohepten-5-yl)-1-met] [(+)-4-(3-bromo-5H-dibenzo[a,d]cyclohepten-5-yl)-1-methylpiperidine]",22
3,"CN1CCC(C2c3ccccc3C=Cc3ccc(Br)cc32)CC1 (single isomer, unassigned; (-)) [5H--eq (-)4-(3-Bromo-5H--dibenzo[a,d]cyclohepten-5-yl)-1-met] [(-)-4-(3-bromo-5H-dibenzo[a,d]cyclohepten-5-yl)-1-methylpiperidine]",92
